Data from patent US20130197085A1, “AGENT AND METHOD FOR STABILIZING MEMBRANE PROTEIN” (priority 2007, published 2013).

Tests used:
[1] = tested on: intrinsic dipeptidyl peptidase IV (DPPIV); assay: Decomposition rate of cell surface-expressed protein (biotin-labeling) in MDCKII cells; type: cell-based; conditions: 1 mM 4PBA
Protocol: MDCKII cells were dispersed on a 6-well plate, resulting in a density of 2.5×10^5 cells/well. After completion of the culture for 24 hours, the confluent cells were infected with recombinant adenoviruses having the cDNAs of wild-type, E297G and D482G BSEPs, and GFP, at 200 MOI. After completion of the infection, the cells were cultured for 24 hours. […] After completion of the treatment for 24 hours, the cells were biotinylated (see Hayashi et al., Hepatology, 41: 916-924, 2005).
The remaining biotinylated protein was isolated, and it was then subjected to 6% SDS-PAGE, followed by Western blotting.

[2] = tested on: extrinsic P-gp; assay: as above; type: cell-based; conditions: 1 mM 4PBA
[3] = target: T1, D482G BSEP (Homo sapiens, UniProt O95342, D482G/L339V); assay: Treatment with actinomycin D and cycloheximide, upregulation of mature BSEP by 4PBA in MDCKII cells; type: cell-based; conditions: 1 mM 4PBA, 6 hours
T1 construct: expressed in transfected cells; host or cells: MDCKII cells infected with recombinant adenovirus
T1 sequence (O95342 whole entry L339V/D482G): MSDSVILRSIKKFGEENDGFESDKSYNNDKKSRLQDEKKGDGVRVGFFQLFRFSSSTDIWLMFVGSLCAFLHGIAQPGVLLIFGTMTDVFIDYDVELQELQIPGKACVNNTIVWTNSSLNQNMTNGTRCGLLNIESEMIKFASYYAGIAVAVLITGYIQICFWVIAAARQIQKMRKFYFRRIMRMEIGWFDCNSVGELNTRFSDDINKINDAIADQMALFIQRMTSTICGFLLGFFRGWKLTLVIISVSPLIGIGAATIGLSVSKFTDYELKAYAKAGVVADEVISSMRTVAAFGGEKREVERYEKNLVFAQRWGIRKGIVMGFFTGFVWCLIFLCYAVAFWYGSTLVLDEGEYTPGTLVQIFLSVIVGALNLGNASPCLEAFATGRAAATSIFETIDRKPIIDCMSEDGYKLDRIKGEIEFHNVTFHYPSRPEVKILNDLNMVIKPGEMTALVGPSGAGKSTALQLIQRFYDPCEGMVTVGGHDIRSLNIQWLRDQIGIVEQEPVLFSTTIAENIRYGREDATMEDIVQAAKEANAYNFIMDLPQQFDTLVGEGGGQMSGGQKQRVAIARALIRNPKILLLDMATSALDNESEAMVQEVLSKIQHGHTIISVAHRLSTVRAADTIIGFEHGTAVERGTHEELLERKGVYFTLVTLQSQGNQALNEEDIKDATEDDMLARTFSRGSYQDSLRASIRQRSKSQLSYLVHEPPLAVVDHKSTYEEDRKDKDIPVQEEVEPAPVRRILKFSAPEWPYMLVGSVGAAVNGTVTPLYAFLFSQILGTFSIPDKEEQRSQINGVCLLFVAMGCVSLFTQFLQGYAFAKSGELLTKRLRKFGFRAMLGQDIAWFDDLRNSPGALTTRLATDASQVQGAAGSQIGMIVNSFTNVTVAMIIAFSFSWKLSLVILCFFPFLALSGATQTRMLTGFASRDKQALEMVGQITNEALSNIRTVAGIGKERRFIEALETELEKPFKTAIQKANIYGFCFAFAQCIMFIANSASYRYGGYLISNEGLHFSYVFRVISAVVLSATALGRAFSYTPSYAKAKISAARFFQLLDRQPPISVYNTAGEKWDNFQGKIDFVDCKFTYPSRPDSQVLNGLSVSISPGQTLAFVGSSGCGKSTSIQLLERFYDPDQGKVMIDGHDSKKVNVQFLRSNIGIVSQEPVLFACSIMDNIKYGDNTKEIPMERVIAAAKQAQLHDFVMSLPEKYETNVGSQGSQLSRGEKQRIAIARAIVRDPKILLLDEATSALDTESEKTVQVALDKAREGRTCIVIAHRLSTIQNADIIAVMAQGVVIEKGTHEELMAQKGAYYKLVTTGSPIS
Protocol: (§1) MDCKII cells were dispersed on a 6-well plate, resulting in a density of 2.5×10^5 cells/well. After completion of the culture for 24 hours, the confluent cells were infected with recombinant adenoviruses having the cDNAs of wild-type, E297G and D482G BSEPs, and GFP, at 200 MOI. After completion of the infection, the cells were cultured for 36 hours. Thereafter, in order to inhibit mRNA synthesis, the cells were treated in the presence or absence of 5 μg/ml actinomycin D (Sigma). Otherwise, in order to inhibit protein synthesis, the cells were treated in the presence or absence of 20 μg/ml cycloheximide (Sigma). After completion of the treatment for 2 hours, in the presence or absence of actinomycin D or in the presence or absence of cycloheximide, 4PBA was added to the cells to a concentration of 1 mM. At the time point of 6 hours (E297G and D482G BSEPs) or 8 hours (wild-type BSEP) after the 4PBA treatment, a crude membrane fraction was prepared. The obtained fraction was separated by 6% SDS-PAGE, and Western blotting was then carried out.

[4] = target: T2, E297G BSEP (Homo sapiens, UniProt O95342, E297G/L339V); assay: as above; type: cell-based; conditions: 1 mM 4PBA, 6 hours
T2 construct: expressed in transfected cells; host or cells: MDCKII cells infected with recombinant adenovirus
T2 sequence (O95342 whole entry E297G/L339V): as the sequence (O95342 whole entry L339V/D482G) above, with E297G, G482D counted along it
Protocol: as §1

[5] = target: T3, wild-type BSEP (Homo sapiens, UniProt O95342, L339V); assay: as above; type: cell-based; conditions: 1 mM 4PBA, 8 hours
T3 construct: expressed in transfected cells; host or cells: MDCKII cells infected with recombinant adenovirus
T3 sequence (O95342 whole entry L339V): as the sequence (O95342 whole entry L339V/D482G) above, with G482D counted along it
Protocol: as §1

[6] = target: T4, BSEP on canalicular membrane (Rattus norvegicus, UniProt O70127); assay: Transport assay using canalicular membrane vesicles (CMVs) from treated rats; type: in vivo, SD rat
T4 construct: from tissue; host or cells: liver of male SD rats: in vivo for A27, canalicular membrane vesicles for A28 and A29
T4 sequence (O70127 1-1321): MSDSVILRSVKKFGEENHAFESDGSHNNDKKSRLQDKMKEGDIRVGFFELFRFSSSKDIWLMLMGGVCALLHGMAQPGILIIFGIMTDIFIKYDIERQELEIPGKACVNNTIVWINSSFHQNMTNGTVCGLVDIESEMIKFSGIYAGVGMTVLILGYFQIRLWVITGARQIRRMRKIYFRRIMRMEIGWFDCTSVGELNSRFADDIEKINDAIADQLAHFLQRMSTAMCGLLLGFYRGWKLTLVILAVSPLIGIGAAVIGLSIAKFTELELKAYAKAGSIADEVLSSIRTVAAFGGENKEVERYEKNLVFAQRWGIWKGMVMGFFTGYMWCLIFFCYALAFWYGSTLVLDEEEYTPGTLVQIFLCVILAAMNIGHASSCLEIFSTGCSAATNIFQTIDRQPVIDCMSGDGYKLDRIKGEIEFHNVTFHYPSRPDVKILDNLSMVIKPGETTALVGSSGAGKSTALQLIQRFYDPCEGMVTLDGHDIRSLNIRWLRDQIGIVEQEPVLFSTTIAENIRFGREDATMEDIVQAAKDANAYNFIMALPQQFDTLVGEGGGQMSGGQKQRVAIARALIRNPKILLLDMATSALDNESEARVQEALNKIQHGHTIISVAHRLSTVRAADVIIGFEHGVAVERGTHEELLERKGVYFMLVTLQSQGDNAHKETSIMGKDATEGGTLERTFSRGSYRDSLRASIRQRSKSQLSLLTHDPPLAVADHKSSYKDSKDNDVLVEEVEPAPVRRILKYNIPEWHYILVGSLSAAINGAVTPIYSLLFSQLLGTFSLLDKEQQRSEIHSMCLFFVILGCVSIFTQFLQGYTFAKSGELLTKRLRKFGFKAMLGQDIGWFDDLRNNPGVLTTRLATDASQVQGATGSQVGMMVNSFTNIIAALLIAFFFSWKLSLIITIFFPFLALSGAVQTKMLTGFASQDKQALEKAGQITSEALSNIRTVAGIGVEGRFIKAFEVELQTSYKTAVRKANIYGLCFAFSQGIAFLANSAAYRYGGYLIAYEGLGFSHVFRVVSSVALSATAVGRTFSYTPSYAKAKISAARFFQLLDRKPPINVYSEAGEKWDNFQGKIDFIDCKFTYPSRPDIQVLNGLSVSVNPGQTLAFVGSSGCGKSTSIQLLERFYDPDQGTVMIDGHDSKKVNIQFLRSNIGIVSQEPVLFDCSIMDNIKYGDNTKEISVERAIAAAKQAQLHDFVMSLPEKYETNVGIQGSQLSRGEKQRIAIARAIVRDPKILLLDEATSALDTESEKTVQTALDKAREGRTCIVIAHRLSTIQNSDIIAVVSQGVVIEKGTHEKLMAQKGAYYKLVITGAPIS
Protocol: […] 4PBA or a vehicle was given to a male SD rat (6- to 7-week-old) for 10 days, divided over 3 administrations. Canalicular membrane vesicles were prepared from the liver of the rat (Akita et al., Biochim Biophys Acta, 1511: 7-16, 2001), and they were then used in Western blotting and a transport assay. Such transport assay was carried out by a rapid filtration method (Hayashi et al., Biochim Biophys Acta, 1738: 54-62, 2005).

O=C(O)CCCc1ccccc1 [4PBA, 4-phenylbutyric acid]
decomposition of intrinsic DPPIV on the cell surface [1]: not influenced
decomposition of extrinsic P-gp on the cell surface [2]: not influenced
effect of transcription inhibition by actinomycin D on the increase in expression of mature BSEP due to 4PBA ([3]; actinomycin D 5 μg/ml): did not affect
effect of translation inhibition by cycloheximide on the increase in expression of mature BSEP due to 4PBA ([3]; cycloheximide 20 μg/ml): did not affect
effect of transcription inhibition by actinomycin D on the increase in expression of mature BSEP due to 4PBA ([4]; actinomycin D 5 μg/ml): did not affect
effect of translation inhibition by cycloheximide on the increase in expression of mature BSEP due to 4PBA ([4]; cycloheximide 20 μg/ml): did not affect
effect of transcription inhibition by actinomycin D on the increase in expression of mature BSEP due to 4PBA ([5]; actinomycin D 5 μg/ml): did not affect
effect of translation inhibition by cycloheximide on the increase in expression of mature BSEP due to 4PBA ([5]; cycloheximide 20 μg/ml): did not affect
ATP-dependent uptake of [^3H] TC by CMVs, higher than CMVs from vehicle-treated rats ([6]; CMVs from SD rats treated at 0.6 g/kg/day for 10 days): 3 times
Vmax value of [^3H] TC uptake by CMVs ([6]; CMVs from SD rats treated with 4PBA at 0.6 g/kg/day for 10 days): 1,000±110
